pKi: −log10 of the molar value. Where a name gives a salt, the structure may show the parent alone.
Target: T1, human DPP-4 (Homo sapiens, UniProt P27487)
T1 construct: during isolation the entire transmembrane domain (including His tag) is removed by proteases present in the CHO cells; His tag (enterokinase-cleavable, from pcDNA4/HisMax) (N, cleaved yes); made in house
Experiment: DPP-4 inhibition assay (cleavage of pseudosubstrate Gly-Pro-pNA, absorbance at 405 nm)
Assay type: biochemical
Conditions: recombinant human DPP-4, steady state, Gly-Pro-pNA 120 or 1000 μM, pH 7.4, 40 min preincubation; IC50 converted to Ki assuming competitive inhibition; read-out: DPP4 Ki
Method: DPP-4 inhibitory activity of the compounds of the present invention may be determined by use of an in vitro assay system which measures the degree in inhibition of DPP-4-mediated cleavage of an appropriate substrate or pseudo-substrate. Inhibition constants (Ki values) for the DPP-4 inhibitors of the invention may be determined by the method described in the experimental section below.
To generate human DPP-4, PCR (Red-tag polymerase, Sigma) was performed on Human cDNA from placenta (Clontech) using two primers, […] (SEQ ID NO:1) and […] (SEQ ID NO:2), based on the nucleotide sequence of the human clone (accession number M74777). PCR products were cloned into the pcDN4/HisMax TOPO vector (Invitrogene). For stable transfection of CHO-DG44 cells, DPP4 was rePCRed using primers […] (SEQ ID NO:3) and […] (SEQ ID NO:4) to generate KpnI and XhoI sites. The KpnI and XhoI sites were used to extract the N-terminal His tagged gene. The His tag, which could be cleaved and removed by Enterokinase, was included to allow purification using the TALON affinity column. The gene was then ligated into the KpnI and XhoI sites of the pD16 vector for stable transfection. Stable cell lines were generated by transfecting the expression vector into Chinese hamster ovary (CHO-DG44) cells using electroporation. The CHO-DG44 cell line was grown in PFCHO media supplemented with HT (glycine, hypoxanthine and thymidine, Invitrogene), glutamine and Recombulin (ICN). Then 1×10^7 cells/ml were collected, transfected with 60 μg of DNA using electroporation at 300V, and then transferred to a T75 flask. On the third day following transfection, the HT supplement was removed and selection was initiated with methotrexate (MTX, 10 nM, ICN). After a further 10 days the cells were plated into individual wells of 96 well plates. Every 10 days the concentration of MTX was increased two to three fold, up to a maximum of 400 nM. Final stable cell line selection was based on yield and activity of the expressed protein.
An attempt to purify recombinant DPP-4 using Talon resin was not efficient, resulting in small yields, with most of the DPP activity passing through the column. Therefore, protein was further purified using conventional anion exchange (Sepharose Q), gel filtration (S-200) and high resolution MonoQ columns. The final protein yielded a single band on SDS-PAGE gels. Amino acid sequence analysis indicated two populations of DPP-4 in the sample. One portion of the protein had 27 amino acids truncated from the N-terminus, while the other was lacking the N-terminal 37 amino acids. […] Total protein concentration was measured using the Bradford dye method and the amount of the active DPP-4 was determined by titrating the enzyme with a previously characterized inhibitor (Ki=0.4 nM).
Inhibition of human DPP-4 activity was measured under steady-state conditions by following the absorbance increase at 405 nm upon the cleavage of the pseudosubstrate, Gly-Pro-pNA. Assays were performed in 96-well plates using a Thermomax plate reader. […] To ensure steady-state conditions for slow-binding inhibitors, enzyme was preincubated with the compound for 40 minutes prior to substrate addition, to initiate the reaction.
Inhibitor potency was evaluated by fitting inhibition data to the binding isotherm:
[formula] where vi is the initial reaction velocity at different concentrations of inhibitor I; v is the control velocity in the absence of inhibitor, range is the difference between the uninhibited velocity and background; background is the rate of spontaneous substrate hydrolysis in the absent of enzyme, n is the Hill coefficient.
Calculated IC50s at each substrate concentration were converted to Ki assuming competitive inhibition according to:
All inhibitors were competitive as judged by a very good agreement of Ki values obtained from the assays at high and low substrate concentrations. […]

T1 sequence (P27487 29-766 limits assumed): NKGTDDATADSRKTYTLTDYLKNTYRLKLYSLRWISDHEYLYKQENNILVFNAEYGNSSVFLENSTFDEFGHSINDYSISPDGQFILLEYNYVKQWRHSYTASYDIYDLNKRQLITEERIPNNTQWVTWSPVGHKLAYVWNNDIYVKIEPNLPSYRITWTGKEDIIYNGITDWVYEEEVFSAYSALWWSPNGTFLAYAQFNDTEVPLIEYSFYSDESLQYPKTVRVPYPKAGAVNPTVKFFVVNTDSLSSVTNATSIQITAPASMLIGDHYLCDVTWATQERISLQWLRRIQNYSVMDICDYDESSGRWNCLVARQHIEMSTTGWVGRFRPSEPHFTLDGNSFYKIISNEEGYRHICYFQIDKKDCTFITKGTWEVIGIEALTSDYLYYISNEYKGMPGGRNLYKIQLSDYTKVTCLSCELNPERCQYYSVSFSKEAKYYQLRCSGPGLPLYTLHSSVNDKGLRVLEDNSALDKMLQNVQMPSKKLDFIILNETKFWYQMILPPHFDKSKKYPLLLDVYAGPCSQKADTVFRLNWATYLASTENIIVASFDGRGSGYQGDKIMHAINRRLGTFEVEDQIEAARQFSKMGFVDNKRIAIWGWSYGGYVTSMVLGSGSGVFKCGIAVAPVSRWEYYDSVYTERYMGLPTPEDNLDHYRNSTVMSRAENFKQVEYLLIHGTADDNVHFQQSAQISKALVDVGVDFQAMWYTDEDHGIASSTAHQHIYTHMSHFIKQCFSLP

pKi	SMILES
8.70	Cc1nc2c(c(-c3ccc(Cl)cc3Cl)c1CN)C(=O)N(CC(=O)N(C)C)CC2 (single isomer, unassigned) [Example 2, TFA salt]
7.42	Cc1nc2c(c(-c3ccccc3Cl)c1CN)C(=O)N(CC(=O)N(C)C)CC2 (single isomer, unassigned) [Example 3, TFA salt]
7.40	Cc1nc2c(c(-c3ccc(Cl)cc3Cl)c1CN)C(=O)N(CC(=O)N(C)C)CC2 (single isomer, unassigned) [Example 4, TFA salt]
< 7.00	Cc1nc2c(c(-c3ccccc3Cl)c1CN)C(=O)N(CC(=O)N(C)C)CC2 (single isomer, unassigned) [Example 5, TFA Salt]
8.16	Cc1nc2c(c(-c3ccc(Cl)cc3Cl)c1CN)C(=O)NCC2 [Example 1, 3-(Aminomethyl)-4-(2,4-dichlorophenyl)-2-methyl-7,8-dihydro-1,6-naphthyridin-5(6H)-one HCl salt]
8.46	Cc1nc2c(c(-c3ccc(Cl)cc3Cl)c1CN)C(=O)N(CC(N)=O)CC2 [Example 6, (S)-2-(3-(Aminomethyl)-4-(2,4-dichlorophenyl)-2-methyl-5-oxo-7,8-dihydro-1,6-naphthyridin-6(5H)-yl)acetamide TFA salt]
8.42	CCN(CC)C(=O)CN1CCc2nc(C)c(CN)c(-c3ccc(Cl)cc3Cl)c2C1=O [Example 8, (S)-2-(3-(Aminomethyl)-4-(2,4-dichlorophenyl)-2-methyl-5-oxo-7,8-dihydro-1,6-naphthyridin-6(5H)-yl)-N,N-diethylacetamide TFA salt]
8.46	Cc1nc2c(c(-c3ccc(Cl)cc3Cl)c1CN)C(=O)N(CC(=O)N1CCCC1)CC2 [Example 9, (S)-3-(Aminomethyl)-4-(2,4-dichlorophenyl)-2-methyl-6-(2-oxo-2-(pyrrolidin-1-yl)ethyl)-7,8-dihydro-1,6-naphthyridin-5(6H)-one TFA salt]
8.41	Cc1nc2c(c(-c3ccc(Cl)cc3Cl)c1CN)C(=O)N(CC(=O)N1CCCCC1)CC2 [Example 10, (S)-3-(Aminomethyl)-4-(2,4-dichlorophenyl)-2-methyl-6-(2-oxo-2-(piperidin-1-yl)ethyl)-7,8-dihydro-1,6-naphthyridin-5(6H)-one TFA salt]
7.31	Cc1nc2c(c(-c3ccc(Cl)cc3Cl)c1CN)C(=O)N(CC(=O)N1CCC(N3CCCCC3=O)CC1)CC2 [Example 11, (S)-3-(Aminomethyl)-4-(2,4-dichlorophenyl)-2-methyl-6-(2-oxo-2-(2-oxo-1,4′-bipiperidin-1′-yl)ethyl)-7,8-dihydro-1,6-naphthyridin-5(6H)-one TFA salt]
8.35	Cc1nc2c(c(-c3ccc(Cl)cc3Cl)c1CN)C(=O)N(CC(=O)N1CCOCC1)CC2 [Example 12, (S)-3-(Aminomethyl)-4-(2,4-dichlorophenyl)-2-methyl-6-(2-morpholino-2-oxoethyl)-7,8-dihydro-1,6-naphthyridin-5(6H)-one TFA salt]
8.11	Cc1nc2c(c(-c3ccc(Cl)cc3Cl)c1CN)C(=O)N(C)CC2 [Example 13, 3-(Aminomethyl)-4-(2,4-dichlorophenyl)-2,6-dimethyl-7,8-dihydro-1,6-naphthyridin-5(6H)-one TFA salt]
8.23	Cc1nc2c(c(-c3ccc(Cl)cc3Cl)c1CN)C(=O)N(C[C@@H]1CCCO1)CC2 [Example 14, 3-(Aminomethyl)-4-(2,4-dichlorophenyl)-2-methyl-6-(((S)-tetrahydrofuran-2-yl)methyl)-7,8-dihydro-1,6-naphthyridin-5(6H)-one TFA salt]
8.27	COCCN1CCc2nc(C)c(CN)c(-c3ccc(Cl)cc3Cl)c2C1=O [Example 15, 3-(Aminomethyl)-4-(2,4-dichlorophenyl)-6-(2-methoxyethyl)-2-methyl-7,8-dihydro-1,6-naphthyridin-5(6H)-one TFA salt]
7.74	Cc1nc2c(c(-c3ccc(Cl)cc3Cl)c1CN)C(=O)N(CCO)CC2 [Example 16, 3-(Aminomethyl)-4-(2,4-dichlorophenyl)-6-(2-hydroxyethyl)-2-methyl-7,8-dihydro-1,6-naphthyridin-5(6H)-one TFA salt]
8.30	Cc1nc2c(c(-c3ccc(Cl)cc3Cl)c1CN)C(=O)N(c1ccccc1)CC2 [Example 17, 3-(Aminomethyl)-4-(2,4-dichlorophenyl)-2-methyl-6-phenyl-7,8-dihydro-1,6-naphthyridin-5(6H)-one TFA salt]
8.64	COc1ccccc1N1CCc2nc(C)c(CN)c(-c3ccc(Cl)cc3Cl)c2C1=O [Example 18, 3-(Aminomethyl)-4-(2,4-dichlorophenyl)-6-(2-methoxyphenyl)-2-methyl-7,8-dihydro-1,6-naphthyridin-5(6H)-one TFA Salt]
8.03	Cc1nc2c(c(-c3ccc(Cl)cc3Cl)c1CN)C(=O)NC(=O)C2 [Example 19, 3-(Aminomethyl)-4-(2,4-dichlorophenyl)-2-methyl-1,6-naphthyridine-5,7(6H,8H)-dione TFA Salt]
